Patent US4923853A, “Process for enhancing the activity of plant protecting agents by using cyclodextrin” (Chinoin Gyogyszer Es Vegyeszeti Termekek Gyara R.T., priority 1985, dated 1990)
In brackets after ≈: the same amount, converted by molar mass.

Tests used:
[1] = cited from earlier work; for duration of pesticide activity: on forming complexes with cyclodextrin
[2] = cited from earlier work; for volatility of the active ingredient: on forming complexes with cyclodextrin
[3] = cited from earlier work
[4] = tested on: Alternaria tenuis; experiment: Fungistatical effect of β-cyclodextrin (agar, colony diameter); type: cell-based; settings: Alternaria alternata
Description: (§1) The fungistatical activity of cyclodextrins has never been disclosed in prior art.
(§2) Agar nutrient media comprising 0.1-0.2 -0.5-1.0-2.0-5.0-10.0-20.0-100.0- 200.0-400.0-800.0-1200.0-1500.0-2000.0-3000.0 μg β-cyclodextrin/ml, respectively, are prepared in Petri-dishes. Mycelium discs are cut out from surface cultures of three test fungi and are placed onto the agar nutrient media in the Petri-dishes. Incubation is carried out in a thermostate whereupon the increase of the diameter of the colonies is determined and compared to that of the control. The morphology of the colonies and the diffusion of the dye-substance produced by the fungi into the nutrient medium are evaluated as well.
(§3) The fungistatical effect of cyclodextrin manifests itself in the changed morphology, structure and color of the colonies and in the amount of the dyestuff penetrated into the nutrient medium. However at higher dose range the effect of cyclodextrin is already of a quantitative nature, thus the decrease of the diameter of the colonies can be measured and the amount of the biomass formed is reduced to a rate which can be evaluated (Table 1).

[5] = tested on: Rhizoctonia solani; experiment: as above; type: cell-based
Description: as §1, §2, §3

[6] = tested on: Sclerotinia sclerotiorum; experiment: as above; type: cell-based
Description: as §1, §2, §3

[7] = tested on: three test fungi; experiment: Fungistatical effect of β-cyclodextrin, morphology and surfacial cultures; type: cell-based; settings: surfacial cultures
Description: as §2, §3

[8] = tested on: wheat powdery mildew; experiment: In vivo test on wheat-powdery mildew (host-parasite)
Description: In vivo tests are carried out on wheat-powdery mildew (host-parasite) by using a combination of phenarimol [2,4'-dichloro-α--(pyrimidine-5-yl)-diphenyl-ethanol] and β-cyclodextrin. The tests are carried out in three replicates in phytotrone under usual experimental system and environmental conditions (20° C., humidity 90%, light intensity 9000 lux.) In culturing dishes (diameter 11 cm) as average 160 plants (5-6 cm stage) are treated with 8 ml of stable aqueous suspensions comprising the test material. The inhibition activity is calculated on the basis of the Hinfner-Papp formula by using the infectedness index.

[9] = tested on: test fungi; experiment: Fungicidal activity of metomeclan with cyclodextrin, general statement; type: cell-based
Description: The following tests substantiate the surprising synergism between known fungicides and β-cyclodextrin. Stable, highly dispersed aqueous suspensions of the test materials are added to agar nutrient media in the desired concentration (0.1-200 μg/ml), whereupon the nutrient media are poured into Petri-dishes. Mycelium discs are cut out from the surfacial cultures of the test fungi and the discs are placed into the Petri-dishes containing the test materials. Incubation is carried out in thermostate whereupon the increase of the diameter of the colonies is measured and compared to that of the control. The tests are carried out in three replicates.

[10] = Solubility of benomyl under the effect of β-cyclodextrin (shaking in water, UV); type: physicochemical; settings: water 25° C.; for solubility thermodynamic at 10 min / solubility thermodynamic at 20 min / solubility thermodynamic at 40 min / solubility thermodynamic at 80 min / solubility thermodynamic at 2 h: water, read-out: Amount of dissolved benomyl
Description: (Benomyl and benomyl+β-cyclodextrin, respectively, are shaken in water at 25° C., the samples are filtered and the dissolved benomyl contents of the filtrates are determined by UV spectrophotometry).

[11] = Solubility of benomyl from various materials incl. Fundazol under the effect of β-cyclodextrin; type: physicochemical
Description: Benomyl is put on the market under the commercial name Fundazol 50 WP; benomyl active ingredient content: 50%. In Table 3 the solubility data of benomyl, a mixture of benomyl and cyclodextrin, Fundazol 50 WP, and a mixture of Fundazol 50 WP and cyclodextrin are shown. In each experiment […] of the test substance are weighed in and shaken at 25° C. Benomyl is a 100% active ingredient; the benomyl content of the benomyl/cyclodextrin mixture amounts to 17.3%; the benomyl content of Fundazol 50 WP is 50%; the benomyl content of the mixture of Fundazol 50 WP and cyclodextrin amounts to 8.65%.
2000 μg/ml of solid material are weighed in which corresponds to the following amounts of benomyl:
in the case of benomyl: 2000 μg/ml
in the case of benomyl+β-CD: 350 μg/ml++1650 μg β-CD
in the case of Fundazol 50 WP: 1000 μg/ml
in the case of Fundazol 50 WP+β-CD: 175 μg/ml++1650 μg β-CD.

[12] = 10 minutes, weighed in 1000 μg/ml benomyl, or 170 μg benomyl + 830 μg/ml β-CD
[13] = 10 minutes, weighed in 5000 μg/ml benomyl, or 850 μg benomyl + 4150 μg/ml β-CD
[14] = 20 minutes, weighed in 1000 μg/ml benomyl, or 170 μg benomyl + 830 μg/ml β-CD
[15] = 20 minutes, weighed in 5000 μg/ml benomyl, or 850 μg benomyl + 4150 μg/ml β-CD
[16] = 40 minutes, weighed in 1000 μg/ml benomyl, or 170 μg benomyl + 830 μg/ml β-CD
[17] = 40 minutes, weighed in 5000 μg/ml benomyl, or 850 μg benomyl + 4150 μg/ml β-CD
[18] = 80 minutes, weighed in 1000 μg/ml benomyl, or 170 μg benomyl + 830 μg/ml β-CD
[19] = 80 minutes, weighed in 5000 μg/ml benomyl, or 850 μg benomyl + 4150 μg/ml β-CD
[20] = 120 minutes, weighed in 1000 μg/ml benomyl, or 170 μg benomyl + 830 μg/ml β-CD
[21] = 120 minutes, weighed in 5000 μg/ml benomyl, or 850 μg benomyl + 4150 μg/ml β-CD

COP(=O)(OC)OC=C(Cl)Cl [dichlorphos, 2,2--dichlorovinyl-dimethyl-phosphate]
duration of pesticide activity [1]: remains sufficient for a longer period of time
volatility of the active ingredient [2]: significantly decreased

COC(=O)Nc1nc2ccccc2[nH]1 [methyl-benzimidazole carbamate, 2-carbomethoxyamino-benzimidazole]
solubility in water [3]: still less soluble in water

OC[C@H]1O[C@@H]2O[C@H]3[C@H](O)[C@@H](O)[C@@H](O[C@H]4[C@H](O)[C@@H](O)[C@@H](O[C@H]5[C@H](O)[C@@H](O)[C@@H](O[C@H]6[C@H](O)[C@@H](O)[C@@H](O[C@H]7[C@H](O)[C@@H](O)[C@@H](O[C@H]8[C@H](O)[C@@H](O)[C@@H](O[C@H]1[C@H](O)[C@H]2O)O[C@@H]8CO)O[C@@H]7CO)O[C@@H]6CO)O[C@@H]5CO)O[C@@H]4CO)O[C@@H]3CO [β-cyclodextrin]
inhibition at 200 µg/mL ([4]; β-cyclodextrin 200 μg/ml): 7%
inhibition at 400 µg/mL ([4]; β-cyclodextrin 400 μg/ml): 10%
inhibition at 1500 µg/mL ([4]; β-cyclodextrin 1500 μg/ml): 12%
inhibition at 3000 µg/mL ([4]; β-cyclodextrin 3000 μg/ml): 14%
inhibition at 200 µg/mL ([5]; β-cyclodextrin 200 μg/ml): 3%
inhibition at 400 µg/mL ([5]; β-cyclodextrin 400 μg/ml): 6%
inhibition at 1500 µg/mL ([5]; β-cyclodextrin 1500 μg/ml): 17%
inhibition at 3000 µg/mL ([5]; β-cyclodextrin 3000 μg/ml): 19%
inhibition at 200 µg/mL ([6]; β-cyclodextrin 200 μg/ml): 12%
inhibition at 400 µg/mL ([6]; β-cyclodextrin 400 μg/ml): 12%
inhibition at 1500 µg/mL ([6]; β-cyclodextrin 1500 μg/ml): 14%
inhibition at 3000 µg/mL ([6]; β-cyclodextrin 3000 μg/ml): 16%
formation of the propagative organs [7]: inhibits the formation of the propagative organs

OC(c1ccc(Cl)cc1)(c1cncnc1)c1ccccc1Cl (stereo not drawn) [Phenarimol, 2,4'-dichloro-α-(pyrimidine-5-yl)--diphenyl-methanol]
Inhibition activity % ([8]; phenarimol concentration 0.625 μg/ml): 29.4%
Inhibition activity % ([8]; phenarimol concentration 1.25 μg/ml): 73.5%
Inhibition activity % ([8]; phenarimol concentration 2.5 μg/ml): 87.2%
Inhibition activity % ([8]; phenarimol concentration 5 μg/ml): 99.4%
Inhibition activity % ([8]; phenarimol concentration 10 μg/ml): 100.0%

N#Cc1c(Cl)cccc1Cl [dichlobenyl, 2,6-dichloro-benzonitrile]
sublimation ([2]; uncomplexed, inhibited by forming complex with cyclodextrin): easily sublimates

O=P(O)(O)CCCl
ethylene release on contacting with plant tissue ([1]; complex with cyclodextrin): long-lasting process

CCN(CC)C(=O)SCc1ccc(Cl)cc1 [bentiocarb, S-4-chlorobenzyl-diethylthio carbamate]
duration of pesticide activity [1]: remains sufficient for a longer period of time
volatility of the active ingredient [2]: significantly decreased

CCSC(=O)N1CCCCCC1 [molinate, S-ethyl-N,N-hexamethylene-thiocarbamate]
duration of pesticide activity [1]: remains sufficient for a longer period of time
volatility of the active ingredient [2]: significantly decreased

COCC1CC(=O)N(c2cc(Cl)cc(Cl)c2)C1=O (centres unmarked) [Metomeclan, 1-(3,5-dichlorophenyl)-3-methoxymethyl-pyrrolidine-2,5-dione]
activity on addition of cyclodextrin (in words) [9]: significantly increased
solubility in water [3]: insoluble in water

COP(=S)(OC)Oc1ccc([N+](=O)[O-])cc1 [Methyl-parathion, 0,0-dimethyl-0-4-nitrophenyl-phosphorothioate]
stability against light and oxygen ([2]; cyclodextrin complexes): increase the stability against light and oxygen to a considerable extent

CCCCNC(=O)n1c(NC(=O)OC)nc2ccccc21 [benomyl, 1-butylcarbamoyl-benzimidazole-2-methyl-carbamate]
Amount of dissolved benomyl, % [10, 12]: 0.2%
Amount of dissolved benomyl, % [10, 13]: 0.07%
Amount of dissolved benomyl, % [10, 14]: 0.3%
Amount of dissolved benomyl, % [10, 15]: 0.08%
Amount of dissolved benomyl, % [10, 16]: 0.45%
Amount of dissolved benomyl, % [10, 17]: 0.12%
Amount of dissolved benomyl, % [10, 18]: 0.5%
Amount of dissolved benomyl, % [10, 19]: 0.16%
Amount of dissolved benomyl, % [10, 20]: 0.5%
Amount of dissolved benomyl, % [10, 21]: 0.19%
solubility thermodynamic at 10 min [10, 12]: 2 µg/mL
solubility thermodynamic at 10 min [10, 13]: 3.5 µg/mL
solubility thermodynamic at 20 min [10, 14]: 3 µg/mL
solubility thermodynamic at 20 min [10, 15]: 4 µg/mL
solubility thermodynamic at 40 min [10, 16]: 4.5 µg/mL
solubility thermodynamic at 40 min [10, 17]: 6 µg/mL
solubility thermodynamic at 80 min [10, 18]: 5 µg/mL
solubility thermodynamic at 80 min [10, 19]: 8 µg/mL
solubility thermodynamic at 2 h [10, 20]: 5 µg/mL
solubility thermodynamic at 2 h [10, 21]: 9.5 µg/mL
solubility thermodynamic at 10 min ([11]; 10 minutes, shaking in water at 25° C., read-out: Dissolved benomyl): 2 µg/mL (≈ 6.89 µM)
solubility thermodynamic at 20 min ([11]; 20 minutes, shaking in water at 25° C., read-out: Dissolved benomyl): 5 µg/mL (≈ 17.2 µM)
solubility thermodynamic at 40 min ([11]; 40 minutes, shaking in water at 25° C., read-out: Dissolved benomyl): 6 µg/mL (≈ 20.7 µM)
solubility thermodynamic at 80 min ([11]; 80 minutes, shaking in water at 25° C., read-out: Dissolved benomyl): 7 µg/mL (≈ 24.1 µM)
solubility thermodynamic at 2 h ([11]; 120 minutes, shaking in water at 25° C., read-out: Dissolved benomyl): 8 µg/mL (≈ 27.6 µM)
solubility thermodynamic at 160 min ([11]; 160 minutes, shaking in water at 25° C., read-out: Dissolved benomyl): 9 µg/mL (≈ 31 µM)
further increase of the solubility caused by cyclodextrin ([11]; on addition of cyclodextrin, water 25° C.): 1.5-2 -fold
decomposition when dissolved in water ([3]; to methyl-benzimidazole carbamate): rapidly decomposes
solubility in water [3]: poorly soluble in water
